Reference: patent publication US8481005B2, “Methods to prevent cytotoxicity using N-acetyl-cysteine” (priority 2006, dated 2013)

Experiments:
[1] = tested on: human dental pulp stromal cells; experiment: Human dental pulp stromal cells, 4 hour treatment: VEGF ELISA and apoptosis; type: cell-based; conditions: HEMA alone or with NAC 20 mM, then overnight
Procedure: After this treatment cells were washed and incubated overnight.

[2] = tested on: odontoblasts; experiment: ALP staining of rat odontoblasts; type: cell-based; conditions: 0.00328M HEMA; overnight, 7 days or 14 days
Procedure: Restoring the function of cells is also very important. Therefore, ALP staining was performed as a measure of odontoblast function. […] Following this incubation, cells were washed twice with PBS and incubated with 120 mM of Tris buffer (pH=8.4) containing 0.9 mM Napthol AS-M Phosphate and 1.8 mM Fast Red TR for 30 minutes at 37° C. Afterwards the cells were washed three times with PBS and then fixed with 1 ml cold ethanol (100%) for about 30 minutes. The stained cultures were digitized using a scanner.

[3] = tested on: human dental pulp stromal cells; experiment: VEGF release from human dental pulp stromal cells (Table 4); type: cell-based
Procedure: The cells were then grown in media containing β-glycerophosphate and ascorbic acid until they reached confluency. […] Supernatants were measured for VEGF release.

[4] = tested on: RAW 264.7 cells
Procedure: (§1) RAW 264.7 cells (murine macrophages) were obtained from American Type Culture Collection (ATCC) and were cultured in a 5% CO2 atmosphere in DMEM (purchased from Cellgro (Herndon, Va.)) containing 10% FCS, 1% penicillin-streptomycin, 1% sodium pyruvate, 1% non essential amino acids and 1% glutamine. THP-1 cells (human macrophages) were obtained from ATCC and were cultured under the same conditions, with RMPI 1640 containing 10% FCS, 1% penicillin-streptomycin, 1% sodium pyruvate and 1% non essential amino acids.
(§2) Dose-dependent apoptosis was measured by FITC-Annexin V/Propidium iodide kits (Miami, Fla.). Cells were plated in six-well/twelve well plates. […] Cells were washed twice with PBS and centrifuged at about 2000 rpm for about 5 minutes and resuspended in binding buffer (provided in the kit) along with FITC-Annexin V/Propidium iodide (PI) according to manufacturer's instructions. After incubating on ice (light protected) for about 15 minutes, samples were analyzed by flow cytometry. Flow cytometric analysis was performed using a flow cytometer equipped with a single 488-nm argon laser. Dead cell fragments were gated out by forward and side scatter analysis. […] Forward and side scatter were used to gate out cellular fragments.
(§3) After an overnight incubation, the levels of cell death were determined using PI staining of ethanol fixed cells. Specifically, cells were washed twice with PBS before they were treated with 70% ethanol (250 μl). Ethanol was added dropwise and then the cells were incubated on ice for 30 minutes. The cells were then washed twice with PBS and resuspended in 1 ml PBS to which PI at a final concentration of 1 mg/ml was added. The samples were then analyzed using the flow cytometer.
(§4) In FIGS. 2A and 2B, the numbers in each histogram represent the percentage of Sub Go/G1 fragmented cell populations. Ten thousand events were analyzed for each sample.

[5] = tested on: THP-1 cells
Procedure: as §1, §2, §3, §4

[6] = tested on: Jurkat cells; experiment: Mitochondrial membrane potential in Jurkat cells (DiOC6); type: cell-based; conditions: HEMA alone or with NAC 20 mM
Procedure: The membrane potential was assessed by staining with DiOC6 which is a positively charged dye. At low concentrations, it accumulates in mitochondria due to their large negative membrane potential. However when the membrane potential is disrupted there is less binding of this dye.

[7] = tested on: NFkB knock down oral keratinocytes; experiment: Cell death in NFkB knock down oral keratinocytes (FS/PI); type: cell-based, human; conditions: overnight
Source text: Next, retrovirally-transduced oral keratinocytes were left untreated or treated with HEMA. […] Numbers in each quadrant represent the percentages of cells in that quadrant.
Similar treatments were next performed as described above except that the morphological assessment of oral keratinocytes before and after HEMA treatment was examined.

[8] = tested on: human smooth muscle cells; experiment: VEGF secretion of human smooth muscle cells (ELISA); type: cell-based; conditions: HEMA (0.082M) alone or with NAC 20 mM, 4 hours, then overnight
[9] = tested on: active caspase 3; experiment: Active caspase 3 staining in PBMCs treated with HEMA or CDDP; type: cell-based; conditions: HEMA 0.0164M
[10] = tested on: PBMCs; experiment: PBMCs treated with HEMA or CDDP, FITC-Annexin V and PI; type: cell-based; conditions: about 18 hours, highest concentration of CDDP, HEMA 0.0164M-0.00164M
Source text: The cells were then stained with FITC-Annexin V and PI according to the manufacturer's protocol.

[11] = tested on: peripheral blood mononuclear cells; experiment: PI/Annexin V apoptosis in peripheral blood mononuclear cells; type: cell-based, human; conditions: PBMCs, overnight
Procedure: PBMCs were isolated and obtained after Ficoll-hypaque centrifugation as described in Jewett et al., 159, J. Immunol. (1997) which is hereby incorporated by reference. Specifically, human peripheral blood was obtained from normal donors in the laboratory as per guidelines of the UCLA Human Subject Protection Committee. The blood was fractionated on Ficoll-Hypaque, and the buffy layer was harvested, washed and resuspended in media.
Peripheral blood mononuclear cells were then cultured in RPMI 1640 supplemented with 10% FCS, 1% penicillin-streptomycin, 1% sodium pyruvate and 1% non-essential amino acids.
Cells were simultaneously treated in the presence and absence of NAC overnight. […] It is quite well known that apoptotic cells initially lose their size and gain in granularity when they undergo cell death. These changes are one hallmark of apoptosis.

[12] = tested on: differentiated pulp cells (odontoblasts); experiment: Composite discs on differentiated pulp cells, FITC-Annexin V/PI; type: cell-based; conditions: completely cured composite discs in 0.4 μm inserts; one week
Procedure: Next, the effects of routinely used composites on the odontoblasts were tested. The composite discs were made according to ADA specifications. These discs were completely cured for a total time of about 90 seconds. The discs were then placed into culture dish inserts (Millipore, Calif.). […] The insert along with the composite disc were placed into the well containing the differentiated pulp cells. After one week of incubation at about 37° C. the cells were removed and the numbers of apoptotic cells were analyzed using FITC-Annexin V/PI as described previously.

[13] = tested on: IL-2 treated PBMCs; experiment: Tritiated thymidine proliferation of IL-2 treated PBMCs; type: cell-based; conditions: HEMA and NAC, 24 hours with tritiated thymidine
Procedure: Tritiated thymidine was added to the cells and after 24 hours of incubation assessed for proliferation.

[14] = tested on: human dental pulp stromal cells; experiment: ALP staining of human dental pulp stromal cells; type: cell-based; conditions: after 7 days of incubation; NAC 20 mM
Procedure: Following the experiment described above in human dental pulp stromal cells, treatments were carried out as described above with the levels of ALP staining representing maturation/differentiation of dental pulp stromal cells. This staining was performed after 7 days of incubation. […] Odontoblasts

[15] = 0.0164M HEMA alone (HEMA) or also treated with NAC (NAC)
[16] = NAC 20 mM pretreatment about 8 hours or simultaneous, overnight

## C=C(C)C(=O)OCCO [HEMA, hydroxyethyl methacrylate]
[1]
  VEGF secretion: large effects
  cell death: large effects
[2]
  ALP staining (odontoblast function): significantly less staining
[3]; HEMA 0.00164M, alone or with NAC
  Human dental pulp stromal cells (VEFG secretion): 163.7 pg/mL
[3]; HEMA 0.0082M, alone or with NAC
  Human dental pulp stromal cells (VEFG secretion): 125.1 pg/mL
[3]; HEMA 0.0164M, alone or with NAC
  Human dental pulp stromal cells (VEFG secretion): 113.4 pg/mL
[4]; HEMA about 18 hours
  HEMA-mediated cell death and cytotoxicity (FITC-Annexin V/PI): detected at millimole to micromole concentrations
[5]; HEMA about 18 hours
  HEMA-mediated cell death and cytotoxicity (FITC-Annexin V/PI): detected at millimole to micromole concentrations
[6]
  mitochondrial membrane potential (Δψm): decrease in mitochondrial membrane potential
[7]
  cell death (FS, PI staining): induces significant cell death
[8]
  VEGF secretion: significantly reduced VEGF secretion
[9]
  increase in active caspase 3 staining compared to the CDDP treated cells: about 2 fold
[9]; CDDP
  active caspase 3 staining: 42%
[10]
  cells remained both PI and Annexin V negative: less than 50%
[11]; 0.0082M HEMA alone (HEMA) or also treated with NAC (NAC)
  cells in the stage of late apoptosis (PI/Annexin V): 39%
[11]; [15]
  cells in the stage of late apoptosis (PI/Annexin V): about 45%

## CC(=O)N[C@@H](CS)C(=O)O [NAC, N-acetyl-cysteine]
[1]
  VEGF secretion: strongly if not totally ameliorated
  cell death: strongly if not totally ameliorated
[2]
  ALP staining (odontoblast function): positive for ALP staining
[12]
  apoptotic cells (FITC-Annexin V/PI): inhibits cell death induced by light cured composite disks
[13]
  proliferation: can prevent HEMA-induced loss of proliferation
[3]; NAC alone, no HEMA
  Human dental pulp stromal cells (VEFG secretion): 1804.1 pg/mL
[4]; [16]
  inhibition of HEMA-mediated cell death (Sub Go/G1, PI staining): inhibited HEMA-mediated cell death
[5]; [16]
  inhibition of HEMA-mediated cell death (Sub Go/G1, PI staining): inhibited HEMA-mediated cell death
[14]
  HEMA-mediated decrease in ALP: significantly prevented
[6]
  mitochondrial membrane potential (Δψm): restored mitochondrial membrane potential
[8]
  VEGF secretion: could be reversed
[11]; [15]
  cells in the stage of late apoptosis (PI/Annexin V): about 25%
